Results on seven compounds are retold here after article PMC11078956, “Structural investigation of interactions between halogenated flavonoids and the lipid membrane along with their role as cytotoxic agents” (Scientific Reports, 2024).

One series has as its system CLBL-1 cells. Briefly: MTT cytotoxicity, CLBL-1. Format: cell-based, canine. The following applies: Canis lupus familiaris; CLBL-1, MTT, 72 h, mean ± SD; read-out: IC50 values after 72 h. The text has this: (§1) The study involved four canine cancer cell lines: RDSVS-TCC1 and K9NK (bladder cancer), CLBL-1 (B-cell lymphoma), GL-1 (B/T-cell leukemia) and noncancerous cell line CF2TH (fetal canine thymus). CLBL-1 was obtained from Barbara C.Ruetgen from the Institute of Immunology, Department of Pathobiology, University of Veterinary Medicine, Vienna[48]. GL-1 from Yasuhito Fujino and Hajime Tsujimoto of the University of Tokyo, Department of Veterinary Internal Medicine[49]. The CF2TH cell line was purchased from American Type Culture Collection (ATCC, Rockville, MD, USA).
(§2) The cell lines were maintained in RPMI- 1640 (CLBL-1, GL-1 and CF2TH) (Gibco, Grand Island, NY, USA) or DMEM (Institute of Immunology and Experimental Therapy, Polish Academy of Sciences, Wrocław, Poland) (RDSVS-TCC1, K9NK) culture medium supplemented with 10% fetal bovine serum FBS (Gibco, Grand Island, NY, USA), 100 units/mL penicillin and […] streptomycin and 1% of L-glutamine (Sigma Aldrich, Steinheim, Germany).
(§3) The cytotoxicity assay was determined by MTT test after 72 h of treatment, according to the procedure described previously[50] with minor modifications.
(§4) In summary, the cells plated at the density of 3*10^4 (k9NK, RDSVS-TCC1), 2*10^5 (CLBL-1, GL-1) and 7.5*10^3 (CF2TH) per mililiter were seeded in 96-well plates (NUNC, Denmark).
(§5) The concentration of tested flavonoids was in the range 1.25–50 µM and DMSO concentration was < 1% in each dilution which is considered harmless to the cells). After incubation for 72 h, 10 µl of 3-(4,5-dimethylthiazol-2-yl)-2,5-diphenyltetrazolium bromide (MTT) solution was added to each well followed by 4 h incubation, then 40 μL of lysis buffer were added. The optical density (OD) of formazan formed from MTT was measured after 24 h using a spectrophotometric microplate reader (Spark, Tecan, Männedorf, Switzerland) at […] 570 nm.
(§6) The results were: determined from more than three independent experiments (three wells each) and presented as mean IC50 value ± SD.

A further series has as its system CF2TH cells. Briefly: MTT cytotoxicity, CF2TH normal cell line. The format is cell-based, canine. The following applies: Canis lupus familiaris, 72 h, mean ± SD, read-out: IC50 values after 72 h.
From the text: as §1, §2, §3, §4, §5, §6

The test system of the next series is K9NK cells. Briefly: MTT cytotoxicity, K9NK. Format: cell-based, canine. The note with it: Canis lupus familiaris, 72 h, mean ± SD, read-out: IC50 values after 72 h.
From the text: as §1, §2, §3, §4, §5, §6

For a further series, the system named is RDSVS-TCC1 cells. Briefly: MTT cytotoxicity, RDSVS-TCC1. The format is cell-based, canine. The note with it: Canis lupus familiaris, 72 h, mean ± SD, read-out: IC50 values after 72 h.
From the text: as §1, §2, §3, §4, §5, §6

The subject of another series is GL-1 cells. Briefly: MTT cytotoxicity, GL-1. Format: cell-based, canine. The following applies: Canis lupus familiaris; GL-1, MTT, 72 h, mean ± SD; read-out: IC50 values after 72 h.
From the text: as §1, §2, §3, §4, §5, §6

Series [1] is described as follows: Hemolysis of red blood cells. The format is cell-based. The following applies: human, human red blood cells (erythrocytes), read-out: degree of haemolysis. How it is done: The cytotoxicity level of the compounds was assessed through a haemolytic activity test, measuring the impact of six compounds at concentrations of […] on human red blood cells (RBCs). According to toxicity categorization, compounds are considered highly toxic if they cause a haemolysis rate of 90–100% and are considered non-toxic if the haemolysis rate falls within the range of 0–9%[28].
Hemolysis, a method to assess the release of hemoglobin from red blood cells (RBCs), was comprehensively explained in our prior research.
For erythrocytes with a hematocrit level of 12%, the compounds were introduced at concentrations of 10, 20, 40 and 60 μM. The prepared samples were kept at 37 °C for 1 and 24 h.
After the incubation period, the samples underwent centrifugation, and the hemoglobin concentration in the supernatants was quantified using a UV–VIS spectrophotometer (Specord 40, AnalytikJena) at a wavelength of 540 nm. The percentage of RBCs hemolysis were determined by comparing the absorbance of hemoglobin in the tested samples to the absorbance of hemoglobin in completely hemolyzed cells (100%). Samples achieving total hemolysis (100%) were generated by adding distilled water.

Series [2] deals with breast cancer cells MCF-7. Also noted: method as in PMID 32364671. The note with it: cited from earlier work.
Series [3] relates to RDSVS-TCC1, GL-1, CLBL-1, CF2TH cells. Briefly: MTT cytotoxicity, all lines tested except K9NK. The format is cell-based, canine. The note with it: Canis lupus familiaris, 72 h.
From the text: as §1, §2, §3, §4, §5, §6

A word on the IC50: it is the midpoint of a concentration-inhibition curve. Consider `O=c1cc(-c2ccccc2)oc2ccc(Cl)cc12` [D4, 6-chloroflavone], for which the IC50 in the series on CLBL-1 cells was found to be 74.4 ± 28.7 µM; in the series with CF2TH cells, 80.9 ± 14.1 µM; in the series on K9NK cells, 35.6 ± 3.41 µM; in the series with RDSVS-TCC1 cells, 58.7 ± 13.3 µM; in the series with GL-1 cells it was 62.4 ± 2.89 µM. Besides, the hemolysis at 24 h, 30 µM in series [1] (30 μM) was determined as 10.8 ± 5.46%.

On to `O=c1cc(-c2ccccc2)oc2c(Cl)cc(Cl)cc12` [D5, 6,8-dichloroflavone], for which the IC50 stood at 76.4 ± 23.2 µM in the series on CLBL-1 cells; 28.5 ± 18 µM in the series with CF2TH cells; 30.5 ± 13.8 µM with K9NK cells; 43 ± 11.3 µM with RDSVS-TCC1 cells; 38.8 ± 6.48 µM with GL-1 cells.

Take `O=c1cc(-c2ccccc2)oc2c(Br)cc(Cl)cc12` [D6, 8-bromo-6-chloroflavone]: the IC50 with CLBL-1 cells stood at 38.1 ± 7.81 µM; with CF2TH cells, 38.1 ± 7.87 µM; with K9NK cells it was 29.1 ± 16.2 µM; in the series on RDSVS-TCC1 cells it was 37.7 ± 14.4 µM; in the series with GL-1 cells, 47.2 ± 1.41 µM.

As for `O=c1cc(-c2ccccc2)oc2c(Br)c(O)c(O)c(O)c12` [8-bromobaicalei], the IC50 in series [2] was 10 ± 3 µM.

Regarding `O=c1cc(-c2ccc(Cl)cc2)oc2ccccc12` [D3, 4′-chloroflavone], the half-maximal inhibitory concentration (IC50) was approximately 30 µM in series [3]; 32.8 ± 2.11 µM in the series on CLBL-1 cells; 28.4 ± 5.02 µM in the series with CF2TH cells; 19.4 ± 6.75 µM in the series with K9NK cells; 28.2 ± 5.62 µM in the series on RDSVS-TCC1 cells; 35.1 ± 6.17 µM in the series on GL-1 cells.

With `O=c1cc(-c2cccc(Cl)c2)oc2ccccc12` [D2, 3′-chloroflavone], the IC50 in series [3] is approximately 30 µM; in the series with CLBL-1 cells, 26.3 ± 6.33 µM; in the series with CF2TH cells, 22.9 ± 6.88 µM; with K9NK cells, 31.2 ± 6.87 µM; in the series on RDSVS-TCC1 cells, 31.6 ± 5.97 µM; with GL-1 cells it was 26.5 ± 4.57 µM. Further, the hemolysis at 24 h, 40 µM in series [1] (40 μM) was determined as 16 ± 1.78%. Further, the hemolysis at 24 h, 50 µM in series [1] (50 μM) amounted to 22.7 ± 1.98%.

One may read the melting point as the temperature of the solid-liquid transition. Compound `O=c1cc(-c2ccccc2Cl)oc2ccccc12` [D1, 2′-chloroflavone] showed a melting point of 109 to 110 °C. This compound returned an IC50 in [3] of approximately 30 µM. Moreover, in the series on CLBL-1 cells, the concentration for half-maximal inhibition (IC50) came to 26.6 ± 3.61 µM. The IC50 with CF2TH cells worked out at 28.2 ± 6.6 µM. In the series on K9NK cells, the concentration for half-maximal inhibition (IC50) was 59.9 ± 14.7 µM. Besides, the IC50 in the series on RDSVS-TCC1 cells was found to be 32.6 ± 8.04 µM. For the same compound, the IC50 in the series on GL-1 cells was determined as 26.5 ± 3.05 µM.
